We go through 19 compounds from patent US20130096135A1, “Selected Inhibitors of Protein Tyrosine Kinase Activity” (METHYLGENE INC., priority 2011, published 2013).

T1 sequence (P35968 806-1356): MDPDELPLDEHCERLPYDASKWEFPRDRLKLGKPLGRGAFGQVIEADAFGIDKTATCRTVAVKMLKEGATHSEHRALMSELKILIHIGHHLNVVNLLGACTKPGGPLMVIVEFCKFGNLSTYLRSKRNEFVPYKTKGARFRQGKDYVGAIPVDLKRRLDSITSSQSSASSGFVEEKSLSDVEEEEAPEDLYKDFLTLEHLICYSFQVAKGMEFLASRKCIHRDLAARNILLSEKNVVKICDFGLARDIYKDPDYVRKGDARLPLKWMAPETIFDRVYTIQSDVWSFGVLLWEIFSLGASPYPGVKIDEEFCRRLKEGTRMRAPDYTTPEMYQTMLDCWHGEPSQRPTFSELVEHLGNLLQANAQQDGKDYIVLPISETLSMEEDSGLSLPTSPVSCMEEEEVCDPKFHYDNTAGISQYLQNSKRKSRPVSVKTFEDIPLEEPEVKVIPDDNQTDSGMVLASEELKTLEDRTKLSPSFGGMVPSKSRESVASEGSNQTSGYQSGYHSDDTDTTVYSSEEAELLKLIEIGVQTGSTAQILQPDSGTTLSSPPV

This experiment has as its target T1, VEGF receptor KDR (VEGFR2) (Homo sapiens, UniProt P35968).
T1 construct: made in house; host or cells: Sf9 cells (Spodoptera frugiperda), baculovirus
In words: In vitro receptor tyrosine kinase assay (VEGF receptor KDR), DELFIA. The experiment is classed as biochemical. The note with it: recombinant GST-VEGFR2 (806-1356), ATP 0.6 uM, enzyme 5 nM; read-out: VEGFR_IC50_UM. The text has this: In Vitro Receptor Tyrosine Kinase Assay (VEGF receptor KDR)
This test measures the ability of compounds to inhibit the enzymatic activity of recombinant human VEGF receptor enzymatic activity.
A 1.6-kb cDNA corresponding to the catalytic domain of VEGFR2 (KDR) (Genbank accession number AF035121 amino acid 806 to 1356) is cloned into the Pst I site of the pDEST20 Gateway vector (Invitrogen) for the production of a GST-tagged version of that enzyme. This construct is used to generate recombinant baculovirus using the Bac-to-Bac™ system according to the manufacturer's instructions (Invitrogen).
The GST-VEGFR2806-1356 protein is expressed in Sf9 cells (Spodoptera frugiperda) upon infection with recombinant baculovirus construct. Briefly, Sf9 cells grown in suspension and maintained in serum-free medium (Sf900 II supplemented with gentamycin) at a cell density of about 2×10^6 cells/ml are infected with the above-mentioned viruses at a multiplicity of infection (MOI) of 0.1 during 72 hours at 27° C. with agitation at 120 rpm on a rotary shaker. Infected cells are harvested by centrifugation at 398g for 15 min. Cell pellets are frozen at −80° C. until purification is performed.
All steps described in cell extraction and purification are performed at 4° C. Frozen Sf9 cell pellets infected with the GST-VEGFR2806-1356 recombinant baculovirus are thawed and gently resuspended in Buffer A (PBS pH 7.3 supplemented with 1 μg/ml pepstatin, 2 μg/ml Aprotinin and leupeptin, 50 μg/ml PMSF, 50 μg/ml TLCK and 10 μM E64 and 0.5 mM DTT) using 3 ml of buffer per gram of cells. Suspension is Dounce homogenized and 1% Triton X-100 is added to the homogenate after which it is centrifuged at 22500 g, 30 min., 4 °C. The supernatant (cell extract) is used as starting material for purification of GST-VEGFR2806-1356.
The supernatant is loaded onto a GST-agarose column (Sigma) equilibrated with PBS pH 7.3. Following a four column volume (CV) wash with PBS pH 7.3+1% Triton X-100 and 4 CV wash with buffer B (50mM Tris pH 8.0, 20% glycerol and 100mM NaCl), bound proteins are step eluted with 5 CV of buffer B supplemented with 5 mM DTT and 15 mM glutathion. GST-VEGFR2806-1356 enriched fractions from this chromatography step are pooled based on U.V. trace i.e. fractions with high 0.D.280. Final GST-VEGFR2806-1356 protein preparations concentrations are about 0.7 mg/ml with purity approximating 70%. Purified GST-VEGFR2806-1356 protein stocks are aliquoted and frozen at −80° C. prior to use in enzymatic assay.
Inhibition of VEGFR/KDR is measured in a DELFIATM assay (Perkin Elmer). The substrate poly(Glu4, Tyr) is immobilized onto black high-binding polystyrene 96-well plates. The coated plates are washed and stored at 4° C. During the assay, the enzyme is pre-incubated with inhibitor and Mg-ATP on ice in polypropylene 96-well plates for 4 minutes, and then transferred to the coated plates. The subsequent kinase reaction takes place at 30° C. for 10-30 minutes. ATP concentrations in the assay are 0.6 uM for VEGFR/KDR (2× the Km). Enzyme concentration is 5 nM. After incubation, the kinase reactions are quenched with EDTA and the plates are washed. Phosphorylated product is detected by incubation with Europium-labeled anti-phosphotyrosine MoAb. After washing the plates, bound MoAb is detected by time-resolved fluorescence in a Gemini SpectraMax reader (Molecular Devices). Compounds are evaluated over a range of concentrations, and IC50 values (concentration of compounds giving 50% inhibition of enzymatic activity) are determined.
For the compound `CN(C)CCN(C)C(=O)C1CCCN(Cc2ccc(-c3cc4nccc(Oc5ccc(NC(=O)NC6CC6)cc5F)c4s3)nc2)C1` (stereo not shown) [Compound 4, 1-((6-(7-(4-(3-Cyclopropylureido)-2-fluorophenoxy)thieno [3,2-b]pyridin-2-yl)pyridin-3-yl)methyl)-N-(2-(dimethylamino)ethyl)-N-methylpiperidine-3-carboxamide], the IC50 turned out to be 8 nM.
For the compound `CNCCNC(=O)C1CCCN(Cc2ccc(-c3cc4nccc(Oc5ccc(NC(=O)NC6CC6)cc5F)c4s3)nc2)C1` (stereo not shown) [Compound 5, 1-((6-(7-(4-(3-Cyclopropylureido)-2-fluorophenoxy)thieno[3,2-b]pyridin-2-yl)pyridin-3-yl)methyl)-N-(2-(methylamino)ethyl)piperidine-3-carboxamide], the IC50 is 8 nM.
Take `CN(C)[C@H]1CCN(C(=O)C2CCCN(Cc3ccc(-c4cc5nccc(Oc6ccc(NC(=O)NC7CC7)cc6F)c5s4)nc3)C2)C1` (stereo partly drawn) [Compound 6, 1-Cyclopropyl-3-(4-(2-(5-((3-((S)-3-(dimethylamino)pyrrolidine-1-carbonyl)piperidin-1-yl)methyl)pyridin-2-yl)thieno[3,2-b]pyridin-7-yloxy)-3-fluorophenyl)urea]: the IC50 is 7 nM.
Under `O=C(Nc1ccc(Oc2ccnc3cc(-c4ccc(CN5CCCC(C(=O)N6CC[C@@H](O)C6)C5)cn4)sc23)c(F)c1)NC1CC1` (stereo partly drawn) [Compound 7, 1-Cyclopropyl-3-(3-fluoro-4-(2-(5-((3-((R)-3-hydroxypyrrolidine-1-carbonyl)piperidin-1-yl)methyl)pyridin-2-yl)thieno[3,2-b]pyridin-7-yloxy)phenyl)urea] stands 7 nM; under `O=C(Nc1ccc(Oc2ccnc3cc(-c4ccc(CN5CCCC(C(=O)N6CC[C@H](O)C6)C5)cn4)sc23)c(F)c1)NC1CC1` (stereo partly drawn) [Compound 8, 1-Cyclopropyl-3-(3-fluoro-4-(2-(5-((3-((S)-3-hydroxypyrrolidine-1-carbonyl)piperidin-1-yl)methyl)pyridin-2-yl)thieno[3,2-b]pyridin-7-yloxy)phenyl)urea], 3 nM; under `O=C(Nc1ccc(Oc2ccnc3cc(-c4ccc(CN5CCCC(C(=O)NC[C@@H](O)CO)C5)cn4)sc23)c(F)c1)NC1CC1` (stereo partly drawn) [Compound 9, 1-((6-(7-(4-(3-Cyclopropylureido)-2-fluoro-phenoxy)thieno[3,2-b]pyridin-2-yl)pyridin-3-yl)methyl)-N-((R)-2,3-dihydroxypropyl)piperidine-3-carboxamide], 11 nM.
Under `CN(C)CCNC(=O)[C@@H]1CCCN(Cc2ccc(-c3cc4nccc(Oc5ccc(NC(=O)NC6CC6)cc5F)c4s3)nc2)C1` [Compound 10, (R)-1-((6-(7-(4-(3-Cyclopropylureido)-2-fluorophenoxy)thieno[3,2-b]pyridin-2-yl)pyridin-3-yl)methyl)-N-(2-(dimethylamino)ethyl)piperidine-3-carboxamide] stands 7 nM; under `CN(CCO)C(=O)[C@H]1CCCN(Cc2ccc(-c3cc4nccc(Oc5ccc(NC(=O)NC6CC6)cc5F)c4s3)nc2)C1` [Compound 11, (S)-1-((6-(7-(4-(3-Ccyclopropylureido)-2-fluorophenoxy)thieno[3,2-b]pyridin-2-yl)pyridin-3-yl)methyl)-N-(2-hydroxyethyl)-N-methylpiperidine-3-carboxamide], 7 nM; under `CN(CCO)C(=O)[C@@H]1CCCN(Cc2ccc(-c3cc4nccc(Oc5ccc(NC(=O)NC6CC6)cc5F)c4s3)nc2)C1` [Compound 12, (R)-1-((6-(7-(4-(3-Cyclopropylureido)-2-fluorophenoxy)thieno[3,2-b]pyridin-2-yl)pyridin-3-yl)methyl)-N-(2-hydroxyethyl)-N-methylpiperidine-3-carboxamide], 6 nM.
As to `CN(C)CCNC(=O)[C@H]1CCCN(Cc2ccc(-c3cc4nccc(Oc5ccc(NC(=O)NC6CC6)cc5F)c4s3)nc2)C1` [Compound 13, (S)-1-((6-(7-(4-(3-Cyclopropylureido)-2-fluorophenoxy)thieno[3,2-b]pyridin-2-yl)pyridin-3-yl)methyl)-N-(2-(dimethylamino)ethyl)piperidine-3-carboxamide], the IC50 came to 8 nM.
Regarding `CC(=O)SCC(=O)N1CCN(Cc2ccc(-c3cc4nccc(Oc5ccc(NC(=O)NC6CC6)cc5F)c4s3)nc2)CC1` [Compound 22, S-2-(4-((6-(7-(4-(3-Cyclopropylureido)-2-fluorophenoxy)thieno[3,2-b]pyridin-2-yl)pyridin-3-yl)methyl)piperazin-1-yl)-2-oxoethyl ethanethioate], the IC50 came out at 15 nM.
Under `C[C@@H]1CN(C(=O)CO)CCN1Cc1ccc(-c2cc3nccc(Oc4ccc(NC(=O)NC5CC5)cc4F)c3s2)nc1` [Compound 26, (R)-1-Cyclopropyl-3-(3-fluoro-4-(2-(5-((4-(2-hydroxyacetyl)-2-methylpiperazin-1-yl)methyl)pyridin-2-yl)thieno[3,2-b]pyridin-7-yloxy)phenyl)urea] stands 4 nM; under `CNCC(=O)N1CCN(Cc2ccc(-c3cc4nccc(Oc5ccc(NC(=O)NC6CC6)cc5F)c4s3)nc2)CC1` [Compound 28, 1-Cyclopropyl-3-(3-fluoro-4-(2-(5-((4-(2-(methylamino)acetyl)piperazin-1-yl)methyl)pyridin-2-yl)thieno[3,2-b]pyridin-7-yloxy)phenyl)urea], 5 nM.
For `C[C@@H](O)CN1CCN(Cc2ccc(-c3cc4nccc(Oc5ccc(NC(=O)NC6CC6)cc5F)c4s3)nc2)CC1` [Compound 29, (R)-1-Cyclopropyl-3-(3-fluoro-4-(2-(5-((4-(2-hydroxypropyl)piperazin-1-yl)methyl)pyridin-2-yl)thieno[3,2-b]pyridin-7-yloxy)phenyl)urea], the IC50 was determined as 5 nM.
Under `COCCOCCOCC(=O)NC1CCN(Cc2ccc(-c3cc4nccc(Oc5ccc(NC(=O)NC6CC6)cc5F)c4s3)nc2)CC1` [Compound 31] stands 17 nM; under `COCC(=O)N1CCN(Cc2ccc(-c3cc4nccc(Oc5ccc(NC(=O)NC6CC6)cc5F)c4s3)nc2)CC1` [Compound 32, 1-Cyclopropvl-3-(3-fluoro-4-(2-(5-((4-(2-methoxyacetyl)piperazin-1-yl)methyl)pyridin-2-yl)thieno[3,2-b]pyridin-7-yloxy)phenyl)urea], 6 nM; under `C[C@@H]1CN(Cc2ccc(-c3cc4nccc(Oc5ccc(NC(=O)NC6CC6)cc5F)c4s3)nc2)CCN1C(=O)CO` [Compound 33], 7 nM.
`CC(=O)OCC(=O)OCC(=O)N1CCN(Cc2ccc(-c3cc4nccc(Oc5ccc(NC(=O)NC6CC6)cc5F)c4s3)nc2)CC1` [Compound 34, 2-(4-((6-(7-(4-(3-Cyclopropylureido)-2-fluorophenoxy)thieno[3,2-b]pyridin-2-yl)pyridin-3-yl)methyl)piperazin-1-yl)-2-oxoethyl 2-acetoxyacetate]: the IC50 stood at 5 nM.
Consider `CC(=O)OC(C)(C)C(=O)N1CCN(Cc2ccc(-c3cc4nccc(Oc5ccc(NC(=O)NC6CC6)cc5F)c4s3)nc2)CC1` [Compound 35, 1-(4-((6-(7-(4-(3-Cyclopropylureido)-2-fluorophenoxy)thieno[3,2-b]pyridin-2-yl)pyridin-3-yl)methyl)piperazin-1-yl)-2-methyl-1-oxopropan-2-yl acetate], for which the IC50 came to 4 nM.
